According to the supplement of paper PMC10307832:

Columns and labels:
Assay in all cases: relative viability (nuclei count vs DMSO), 5 days (fraction); higher = more cells survive
MK-8033 + Pictilisib = compound: Cn1cc(-c2cnc3ccc4ccc(CS(=O)(=O)NCc5ccccn5)cc4c(=O)c3c2)cn1 [MK-8033] + CS(=O)(=O)N1CCN(Cc2cc3nc(-c4cccc5[nH]ncc45)nc(N4CCOCC4)c3s2)CC1 [Pictilisib] (partner 1 µM)
Procedure, shortened: (§1)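 Relative viability equals treated-well nuclei counts divided by vehicle-well nuclei counts. Counts came from 4× images of lung cancer cell lines grown in 1536-well plates for 5 days after pin-tool dosing on the day after seeding. Dosing used one drug alone or a fixed anchor-drug dose plus five library-drug doses (not always all listed) in √10 steps, and values are medians of duplicate plates.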

Irinotecan + Pictilisib = compound: CCc1c2c(nc3ccc(OC(=O)N4CCC(N5CCCCC5)CC4)cc13)-c1cc3c(c(=O)n1C2)COC(=O)[C@]3(O)CC [Irinotecan] + CS(=O)(=O)N1CCN(Cc2cc3nc(-c4cccc5[nH]ncc45)nc(N4CCOCC4)c3s2)CC1 [Pictilisib] (partner 1 µM)
Procedure, shortened: as §1

RU-SKI 43 + Pictilisib = compound: CC[C@@H](C)CNCC(=O)N1CCC2=C([C@@H]1COC3=CC=CC(=C3)C)C=CS2 [RU-SKI 43] + CS(=O)(=O)N1CCN(Cc2cc3nc(-c4cccc5[nH]ncc45)nc(N4CCOCC4)c3s2)CC1 [Pictilisib] (partner 1 µM)
Procedure, shortened: as §1

RU-SKI 43 + Decitabine = compound: CC[C@@H](C)CNCC(=O)N1CCC2=C([C@@H]1COC3=CC=CC(=C3)C)C=CS2 [RU-SKI 43] + Nc1ncn([C@H]2C[C@H](O)[C@@H](CO)O2)c(=O)n1 [Decitabine] (partner 2 µM)
Procedure, shortened: as §1

Cell Line: NCI-H2087
- relative viability (MK-8033 + Pictilisib; first compound 0.02 µM): 0.912
- relative viability (MK-8033 + Pictilisib; first compound 0.06325 µM): 0.814
- relative viability (MK-8033 + Pictilisib; first compound 0.2 µM): 0.737
- relative viability (MK-8033 + Pictilisib; first compound 0.6325 µM): 0.994
- relative viability (MK-8033 + Pictilisib; first compound 2 µM): 0.692
- relative viability (Irinotecan + Pictilisib; first compound 0.6325 µM): 0.311
- relative viability (Irinotecan + Pictilisib; first compound 2 µM): 0.288
- relative viability (Irinotecan + Pictilisib; first compound 6.325 µM): 0.233
- relative viability (Irinotecan + Pictilisib; first compound 20 µM): 0.264
- relative viability (RU-SKI 43 + Pictilisib; first compound 0.1 µM): 0.797
- relative viability (RU-SKI 43 + Pictilisib; first compound 0.3162 µM): 0.992
- relative viability (RU-SKI 43 + Pictilisib; first compound 1 µM): 1.16
- relative viability (RU-SKI 43 + Pictilisib; first compound 3.162 µM): 0.992
- relative viability (RU-SKI 43 + Pictilisib; first compound 10 µM): 0.944
- relative viability (RU-SKI 43 + Decitabine; first compound 0.1 µM): 0.324
- relative viability (RU-SKI 43 + Decitabine; first compound 0.3162 µM): 0.283
- relative viability (RU-SKI 43 + Decitabine; first compound 1 µM): 0.281
- relative viability (RU-SKI 43 + Decitabine; first compound 3.162 µM): 0.247
- relative viability (RU-SKI 43 + Decitabine; first compound 10 µM): 0.238

Cell Line: ChaGo-K-1
- relative viability (MK-8033 + Pictilisib; first compound 0.02 µM): 0.717
- relative viability (MK-8033 + Pictilisib; first compound 0.06325 µM): 0.652
- relative viability (MK-8033 + Pictilisib; first compound 0.2 µM): 0.654
- relative viability (MK-8033 + Pictilisib; first compound 0.6325 µM): 0.713
- relative viability (MK-8033 + Pictilisib; first compound 2 µM): 0.615
- relative viability (Irinotecan + Pictilisib; first compound 2 µM): 0.645
- relative viability (Irinotecan + Pictilisib; first compound 6.325 µM): 0.523
- relative viability (Irinotecan + Pictilisib; first compound 20 µM): 0.161
- relative viability (RU-SKI 43 + Pictilisib; first compound 0.1 µM): 1.07
- relative viability (RU-SKI 43 + Pictilisib; first compound 0.3162 µM): 0.75
- relative viability (RU-SKI 43 + Pictilisib; first compound 1 µM): 1.12
- relative viability (RU-SKI 43 + Pictilisib; first compound 3.162 µM): 0.435
- relative viability (RU-SKI 43 + Pictilisib; first compound 10 µM): 0.495
- relative viability (RU-SKI 43 + Decitabine; first compound 0.1 µM): 0.543
- relative viability (RU-SKI 43 + Decitabine; first compound 0.3162 µM): 0.559
- relative viability (RU-SKI 43 + Decitabine; first compound 1 µM): 0.518
- relative viability (RU-SKI 43 + Decitabine; first compound 3.162 µM): 0.551
- relative viability (RU-SKI 43 + Decitabine; first compound 10 µM): 0.501

Cell Line: A549
- relative viability (MK-8033 + Pictilisib; first compound 0.02 µM): 0.519
- relative viability (MK-8033 + Pictilisib; first compound 0.06325 µM): 0.491
- relative viability (MK-8033 + Pictilisib; first compound 0.2 µM): 0.387
- relative viability (MK-8033 + Pictilisib; first compound 0.6325 µM): 0.47
- relative viability (MK-8033 + Pictilisib; first compound 2 µM): 0.409
- relative viability (Irinotecan + Pictilisib; first compound 0.6325 µM): 0.502
- relative viability (Irinotecan + Pictilisib; first compound 2 µM): 0.452
- relative viability (Irinotecan + Pictilisib; first compound 6.325 µM): 0.139
- relative viability (Irinotecan + Pictilisib; first compound 20 µM): 0.0724
- relative viability (RU-SKI 43 + Pictilisib; first compound 0.1 µM): 0.511
- relative viability (RU-SKI 43 + Pictilisib; first compound 0.3162 µM): 0.742
- relative viability (RU-SKI 43 + Pictilisib; first compound 1 µM): 0.594
- relative viability (RU-SKI 43 + Pictilisib; first compound 3.162 µM): 0.439
- relative viability (RU-SKI 43 + Pictilisib; first compound 10 µM): 0.384
- relative viability (RU-SKI 43 + Decitabine; first compound 0.1 µM): 0.256
- relative viability (RU-SKI 43 + Decitabine; first compound 0.3162 µM): 0.263
- relative viability (RU-SKI 43 + Decitabine; first compound 1 µM): 0.25
- relative viability (RU-SKI 43 + Decitabine; first compound 3.162 µM): 0.307
- relative viability (RU-SKI 43 + Decitabine; first compound 10 µM): 0.234

Cell Line: NCI-H661
- relative viability (MK-8033 + Pictilisib; first compound 0.02 µM): 0.447
- relative viability (MK-8033 + Pictilisib; first compound 0.2 µM): 0.394
- relative viability (MK-8033 + Pictilisib; first compound 0.6325 µM): 0.454
- relative viability (MK-8033 + Pictilisib; first compound 2 µM): 0.423
- relative viability (Irinotecan + Pictilisib; first compound 0.6325 µM): 0.413
- relative viability (Irinotecan + Pictilisib; first compound 2 µM): 0.349
- relative viability (Irinotecan + Pictilisib; first compound 6.325 µM): 0.262
- relative viability (Irinotecan + Pictilisib; first compound 20 µM): 0.33
- relative viability (RU-SKI 43 + Pictilisib; first compound 0.1 µM): 0.432
- relative viability (RU-SKI 43 + Pictilisib; first compound 0.3162 µM): 0.409
- relative viability (RU-SKI 43 + Pictilisib; first compound 1 µM): 0.484
- relative viability (RU-SKI 43 + Pictilisib; first compound 3.162 µM): 0.355
- relative viability (RU-SKI 43 + Pictilisib; first compound 10 µM): 0.414
- relative viability (RU-SKI 43 + Decitabine; first compound 0.1 µM): 0.483
- relative viability (RU-SKI 43 + Decitabine; first compound 0.3162 µM): 0.603
- relative viability (RU-SKI 43 + Decitabine; first compound 1 µM): 0.588
- relative viability (RU-SKI 43 + Decitabine; first compound 3.162 µM): 0.557
- relative viability (RU-SKI 43 + Decitabine; first compound 10 µM): 0.465

Cell Line: LXF-289
- relative viability (MK-8033 + Pictilisib; first compound 0.02 µM): 0.789
- relative viability (MK-8033 + Pictilisib; first compound 0.06325 µM): 0.64
- relative viability (MK-8033 + Pictilisib; first compound 0.2 µM): 0.721
- relative viability (MK-8033 + Pictilisib; first compound 0.6325 µM): 0.734
- relative viability (MK-8033 + Pictilisib; first compound 2 µM): 0.823
- relative viability (Irinotecan + Pictilisib; first compound 0.6325 µM): 0.745
- relative viability (Irinotecan + Pictilisib; first compound 2 µM): 0.7
- relative viability (Irinotecan + Pictilisib; first compound 6.325 µM): 0.206
- relative viability (Irinotecan + Pictilisib; first compound 20 µM): 0.158
- relative viability (RU-SKI 43 + Pictilisib; first compound 0.1 µM): 0.828
- relative viability (RU-SKI 43 + Pictilisib; first compound 0.3162 µM): 0.809
- relative viability (RU-SKI 43 + Pictilisib; first compound 1 µM): 0.832
- relative viability (RU-SKI 43 + Pictilisib; first compound 3.162 µM): 0.794
- relative viability (RU-SKI 43 + Pictilisib; first compound 10 µM): 0.744
- relative viability (RU-SKI 43 + Decitabine; first compound 0.1 µM): 0.373
- relative viability (RU-SKI 43 + Decitabine; first compound 0.3162 µM): 0.357
- relative viability (RU-SKI 43 + Decitabine; first compound 1 µM): 0.384
- relative viability (RU-SKI 43 + Decitabine; first compound 3.162 µM): 0.41
- relative viability (RU-SKI 43 + Decitabine; first compound 10 µM): 0.388

Cell Line: LC-2-ad
- relative viability (MK-8033 + Pictilisib; first compound 0.02 µM): 0.43
- relative viability (MK-8033 + Pictilisib; first compound 0.06325 µM): 0.461
- relative viability (MK-8033 + Pictilisib; first compound 0.2 µM): 0.453
- relative viability (MK-8033 + Pictilisib; first compound 0.6325 µM): 0.572
- relative viability (MK-8033 + Pictilisib; first compound 2 µM): 0.486
- relative viability (Irinotecan + Pictilisib; first compound 0.6325 µM): 0.146
- relative viability (Irinotecan + Pictilisib; first compound 2 µM): 0.315
- relative viability (Irinotecan + Pictilisib; first compound 6.325 µM): 0.231
- relative viability (Irinotecan + Pictilisib; first compound 20 µM): 0.116
- relative viability (RU-SKI 43 + Pictilisib; first compound 0.1 µM): 0.404
- relative viability (RU-SKI 43 + Pictilisib; first compound 0.3162 µM): 0.601
- relative viability (RU-SKI 43 + Pictilisib; first compound 1 µM): 0.562
- relative viability (RU-SKI 43 + Pictilisib; first compound 3.162 µM): 0.438
- relative viability (RU-SKI 43 + Pictilisib; first compound 10 µM): 0.358
- relative viability (RU-SKI 43 + Decitabine; first compound 0.1 µM): 0.866
- relative viability (RU-SKI 43 + Decitabine; first compound 0.3162 µM): 0.766
- relative viability (RU-SKI 43 + Decitabine; first compound 1 µM): 0.81
- relative viability (RU-SKI 43 + Decitabine; first compound 3.162 µM): 0.849
- relative viability (RU-SKI 43 + Decitabine; first compound 10 µM): 0.728

Cell Line: NCI-H2085
- relative viability (MK-8033 + Pictilisib; first compound 0.02 µM): 0.417
- relative viability (MK-8033 + Pictilisib; first compound 0.06325 µM): 0.369
- relative viability (MK-8033 + Pictilisib; first compound 0.2 µM): 0.532
- relative viability (MK-8033 + Pictilisib; first compound 0.6325 µM): 0.57
- relative viability (MK-8033 + Pictilisib; first compound 2 µM): 0.395
- relative viability (Irinotecan + Pictilisib; first compound 0.6325 µM): 0.453
- relative viability (Irinotecan + Pictilisib; first compound 2 µM): 0.403
- relative viability (Irinotecan + Pictilisib; first compound 6.325 µM): 0.313
- relative viability (Irinotecan + Pictilisib; first compound 20 µM): 0.307
- relative viability (RU-SKI 43 + Pictilisib; first compound 0.1 µM): 0.476
- relative viability (RU-SKI 43 + Pictilisib; first compound 0.3162 µM): 0.353
- relative viability (RU-SKI 43 + Pictilisib; first compound 1 µM): 0.473
- relative viability (RU-SKI 43 + Pictilisib; first compound 3.162 µM): 0.409
- relative viability (RU-SKI 43 + Pictilisib; first compound 10 µM): 0.469
- relative viability (RU-SKI 43 + Decitabine; first compound 0.1 µM): 0.509
- relative viability (RU-SKI 43 + Decitabine; first compound 0.3162 µM): 0.497
- relative viability (RU-SKI 43 + Decitabine; first compound 1 µM): 0.572
- relative viability (RU-SKI 43 + Decitabine; first compound 3.162 µM): 0.603
- relative viability (RU-SKI 43 + Decitabine; first compound 10 µM): 0.509
